Results: ChEMBL document CHEMBL5360649, “Potential Broad-Spectrum Antimicrobial, Wound Healing, and Disinfectant Cationic Peptide Crafted from Snake Venom” (J Med Chem, 2023)
Active and inactive are the calls of the source. The rule behind the calls is not given here.

Columns and labels:
Klebsiella pneumoniae [1] = experiment: Antibiofilm activity against Klebsiella pneumoniae assessed as eradication of preformed biofilm at 1 times of MIC incubated for 24 hrs by CV staining based analysis relative to control; type: functional
[2] = Induction of wound healing in surgically-induced Albino Wistar rat wound model assessed as decrease in mean open wound percentage at 10 uM measured after 11 days by photographic analysis (reference value: 32.25%); type: functional; set-up: scale not given: the % may be the effect or the level left; details: time 11 day
Rattus norvegicus = organism: Rattus norvegicus; experiment: Induction of wound healing in surgically-induced Albino Wistar rat wound model assessed as reduction in inflammatory signs at 10 uM measured after 11 days by H&E staining based analysis; type: functional; details: time 11.0 day
Staphylococcus aureus = experiment: Induction of morphological changes in methicillin-resistant Staphylococcus aureus assessed as cellular destruction at MIC concentration incubated for 6 hrs by AFM analysis; type: functional, organism-based
[3] = Stability in human serum assessed as intact peptide remaining at 1 mM measured after 24 hrs by HPLC analysis; type: ADME, cell-free; details: read-out: Stability
Escherichia coli = experiment: Antibacterial activity against Escherichia coli assessed as inhibition of bacterial growth incubated for 0.5 to 8.5 hrs by microtiter plate reader analysis; type: functional, organism-based; details: dose 1.25-40 µM, time 0.5-8.5 hrs
Klebsiella pneumoniae [4] = experiment: Induction of morphological changes in carbapenem resistant Klebsiella pneumoniae ATCC BAA-1705 at MIC concentration incubated for 6 hrs by SEM analysis; type: functional, organism-based

## H-FLPIIKWVKKFFWRWR-OH
Klebsiella pneumoniae [1]
  Activity: ~88%
[2]
  Activity: 5.6%
Rattus norvegicus
  Activity: Active
Staphylococcus aureus
  Activity: Active
[3]
  remaining at 24 h, 1000 µM: 47.1%
Escherichia coli
  Activity: Dose-Dependent Effect
Klebsiella pneumoniae [4]
  Activity: Active
